Here are results for 22 compounds from BindingDB's records for doi:10.1016/j.bioorg.2017.04.005 (Shenyang Pharmaceutical University, 2017).

Where a SMILES comes first, the peptide text is derived from it. [ ]: non-standard residue; d: D form. pY = N[C@@H](Cc1ccc(OP(=O)(O)O)cc1)C(=O)O

The target in the assay is T1, Histone-lysine N-methyltransferase EHMT2 (Homo sapiens, UniProt Q96KQ7).
T1 sequence (Q96KQ7 whole entry): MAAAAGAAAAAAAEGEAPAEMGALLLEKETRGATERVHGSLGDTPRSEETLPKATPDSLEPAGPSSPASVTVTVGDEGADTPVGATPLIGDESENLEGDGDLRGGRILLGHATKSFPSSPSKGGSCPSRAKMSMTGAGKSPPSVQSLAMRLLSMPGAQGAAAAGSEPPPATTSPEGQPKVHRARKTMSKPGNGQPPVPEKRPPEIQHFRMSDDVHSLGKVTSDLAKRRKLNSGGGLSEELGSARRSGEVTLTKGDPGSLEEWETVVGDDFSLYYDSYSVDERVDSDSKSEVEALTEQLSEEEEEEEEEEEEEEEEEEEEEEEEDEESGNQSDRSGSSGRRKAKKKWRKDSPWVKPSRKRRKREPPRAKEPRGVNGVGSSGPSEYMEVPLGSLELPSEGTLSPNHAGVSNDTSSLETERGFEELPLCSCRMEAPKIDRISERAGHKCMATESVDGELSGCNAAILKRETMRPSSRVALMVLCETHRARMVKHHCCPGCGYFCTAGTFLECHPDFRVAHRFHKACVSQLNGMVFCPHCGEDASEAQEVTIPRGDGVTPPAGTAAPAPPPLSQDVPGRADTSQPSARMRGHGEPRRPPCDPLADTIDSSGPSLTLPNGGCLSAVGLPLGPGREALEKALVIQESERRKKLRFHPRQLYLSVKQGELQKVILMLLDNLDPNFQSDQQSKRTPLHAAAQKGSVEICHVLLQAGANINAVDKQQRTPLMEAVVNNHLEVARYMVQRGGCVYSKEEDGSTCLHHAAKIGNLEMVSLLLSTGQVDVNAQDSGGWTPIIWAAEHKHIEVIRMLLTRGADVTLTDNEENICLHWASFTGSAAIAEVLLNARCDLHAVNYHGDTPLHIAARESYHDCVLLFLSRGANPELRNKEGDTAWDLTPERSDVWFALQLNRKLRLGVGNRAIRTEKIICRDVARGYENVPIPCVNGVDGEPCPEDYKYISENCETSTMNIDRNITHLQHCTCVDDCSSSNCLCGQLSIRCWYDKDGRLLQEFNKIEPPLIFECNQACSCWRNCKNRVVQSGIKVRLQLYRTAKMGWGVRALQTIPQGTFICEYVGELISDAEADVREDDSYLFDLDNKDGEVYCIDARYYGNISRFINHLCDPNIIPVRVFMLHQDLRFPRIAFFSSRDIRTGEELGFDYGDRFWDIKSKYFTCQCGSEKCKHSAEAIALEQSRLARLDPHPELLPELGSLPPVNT
Put plainly: Enzymatic Assay. To be noted: pH 8.5; 25 °C. As to the method:
Biochemical activity of G9a was measured as described [Kubicek et al., Mol. Cell, 25:473-481]. Assays were performed in white, opaque 384-well plates coated with Neutravidin (Pierce Biotechnology). Brd 4770 was used as a positive control. Test compounds were diluted to 12 μg/ml in Baffer A (50 mM Tris-HCl pH 8.5 containing 4% DMSO) and 10 μl was dispensed into the wells. Blank and control wells received only compound buffer. GST-G9a at 10 μg/ml and SAM at 40 μM were diluted in Buffer B (50 mM Tris HCl pH 8.5/10 mM DTT) and added in a volume of 20 μL. Blank wells received Tris/DTT buffer only. The reactions were initiated by the addition of 800 nM H3 (1-20)-cysbiotin substrate in Buffer C (50 mM Tris pH 8.5) in a volume of 10 μL, and incubated at room temperature for 60 min. The plates were washed 3 times with 100 μL of Wash Buffer (50 mM Tris pH 7.4, 150 mM NaCl, 0.05% Tween 20, 0.2% BSA). Next, 50 μl of Fluoroimmunoassay (FI) Buffer (50 mM Tris HCl pH 7.8, 150 mM NaCl, 0.05% Tween 40, 25 μM DTPA, 0.2% BSA, 0.05% BGG) containing 5 ng α-2X-di-meth H3-K9 and 5 ng goat anti-rabbit Eu chelate (Perkin Elmer Life Sciences) was added to all wells of the plate, and the plate was incubated for an additional hour at room temperature. The plates were washed 3 times with 100 μL of Wash Buffer, and 50 μL of Enhancement Solution (Perkin Elmer Life Sciences) was added to each well. Time resolved fluorescence was measured after 45 min on a Viewlux Microplate Imager (Perkin Elmer Life Sciences) imaging for 15 s with a 354 μs window, 400 μs delay, excitation at 360 nm, and emission at 618 nm.

The IC50 is the concentration that gives 50% inhibition. Low values mean inhibition by little substance, high ones a need for much substance. Consider `COc1ccccc1C(=O)Nc1ccc2c(c1)nc(-c1ccccc1)n2CCCc1ccccc1` [2-Methoxy-N-(2-phenyl-1-(3-phenylpropyl)-1H-benzo[d]imidazol-5-yl)benzamide (23)], for which half-maximal inhibition (IC50) required 1.75 µM. `N#Cc1ccc(S(=O)(=O)Nc2ccc3c(c2)nc(-c2ccccc2)n3CCCc2ccccc2)cc1` [4-Cyano-N-(2-phenyl-1-(3-phenylpropyl)-1H-benzo[d]imidazol-5-yl)benzenesulfonamide (18)] showed an IC50 of 18.8 µM. The same measure for `N#Cc1ccc(S(=O)(=O)Nc2ccc3nc(-c4ccccc4)oc3c2)cc1` [4-Cyano-N-(2-phenylbenzo[d]oxazol-6-yl)benzenesulfonamide (7)]: 30.4 µM; for `O=C(Nc1ccc2c(c1)nc(-c1ccccc1)n2CCCc1ccccc1)c1ccc(-c2ccccc2)cc1` [N-(2-phenyl-1-(3-phenylpropyl)-1H-benzo[d]imidazol-5-yl)-[1,1'-biphenyl]-4-carboxamide (24)]: 12.2 µM.

Consider `O=S(=O)(Nc1ccc2c(c1)nc(-c1ccccc1)n2CCCc1ccccc1)c1ccc(C(F)(F)F)cc1` [N-(2-phenyl-1-(3-phenylpropyl)-1H-benzo[d]imidazol-5-yl)-4-(trifluoromethyl)benzenesulfonamide (15)], for which the 50% inhibitory concentration (IC50) was 16 µM. Then `CC(C)C[C@H](NC(=O)[C@H](CC(N)=O)NC(=O)[C@@H](N)CC(=O)O)C(=O)N[C@@H](Cc1ccc(O)cc1)C(=O)N[C@@H](Cc1ccc(OP(=O)(O)O)cc1)C(=O)N[C@@H](Cc1c[nH]c2ccccc12)C(=O)N[C@@H](CC(=O)O)C(=O)N[C@@H](CCC(N)=O)C(=O)N[C@@H](CC(=O)O)C(=O)N1CCC[C@H]1C(=O)N1CCC[C@H]1C(=O)O` [ErbB2-pep] (H-DNLY[pY]WDQDPP-OH), with 15.3 µM.

In turn, `COC(=O)c1ccc2c(c1)nc(NC(=O)c1ccccc1)n2CCCc1ccccc1` [Brd4470] gave an IC50 of 6.1 µM. Then `CC(C)[C@H](NC(=O)[C@@H](N)CCC(=O)O)C(=O)N[C@@H](CO)C(=O)N[C@@H](Cc1ccccc1)C(=O)N[C@@H](Cc1ccc(OP(=O)(O)O)cc1)C(=O)N[C@@H](Cc1ccc(O)cc1)C(=O)N[C@@H](CO)C(=O)N[C@@H](CCC(=O)O)C(=O)N[C@@H](CCC(=O)O)C(=O)N[C@@H](CC(N)=O)C(=O)N[C@@H](CCCCN)C(=O)O` [IGF1R-pep] (H-EVSF[pY]YSEENK-OH), with 19 µM; and `O=S(=O)(Nc1ccc2nc(-c3ccccc3)oc2c1)c1ccccc1Br` [2-Bromo-N-(2-phenylbenzo[d]oxazol-6-yl)benzenesulfonamide (8)], with greater than 40 µM. Then `O=S(=O)(Nc1ccc2c(c1)nc(-c1ccccc1)n2CCCc1ccccc1)c1ccc(F)cc1` [4-Fluoro-N-(2-phenyl-1-(3-phenylpropyl)-1H-benzo[d]imidazol-5-yl)benzenesulfonamide (17)], with 16.1 µM.

In turn, `COc1ccccc1C(=O)Nc1ccc2nc(-c3ccccc3)oc2c1` [2-Methoxy-N-(2-phenylbenzo[d]oxazol-6-yl)benzamide (10)] had a 50% inhibitory concentration (IC50) of 12.8 µM.

In turn, `COc1ccccc1S(=O)(=O)Nc1ccc2c(c1)nc(-c1ccccc1)n2CCCc1ccccc1` [2-Methoxy-N-(2-phenyl-1-(3-phenylpropyl)-1H-benzo[d]imidazol-5-yl)benzenesulfonamide (14)] yielded a 50% inhibitory concentration (IC50) of 2.63 µM. The same measure for `O=[N+]([O-])c1cccc(S(=O)(=O)Nc2ccc3c(c2)nc(-c2ccccc2)n3CCCc2ccccc2)c1` [3-Nitro-N-(2-phenyl-1-(3-phenylpropyl)-1H-benzo[d]imidazol-5-yl)benzenesulfonamide (13)]: 35.4 µM; for `O=C(Nc1ccc2nc(-c3ccccc3)oc2c1)c1ccccc1F` [2-Fluoro-N-(2-phenylbenzo[d]oxazol-6-yl)benzamide (11)]: greater than 40 µM; for `O=C(Nc1ccc2c(c1)nc(-c1ccccc1)n2CCCc1ccccc1)c1ccccc1F` [2-Fluoro-N-(2-phenyl-1-(3-phenylpropyl)-1H-benzo[d]imidazol-5-yl)benzamide (21)]: 9.59 µM. The same measure for `O=C(Nc1ccc2nc(-c3ccccc3)oc2c1)c1cccc(Br)c1` [3-Bromo-N-(2-phenylbenzo[d]oxazol-6-yl)benzamide (12)]: 15.3 µM; for `O=S(=O)(Nc1ccc2c(c1)nc(-c1ccccc1)n2CCCc1ccccc1)c1ccc(OC(F)(F)F)cc1` [N-(2-phenyl-1-(3-phenylpropyl)-1H-benzo[d]imidazol-5-yl)-4-(trifluoromethoxy)benzenesulfonamide (16)]: 21.9 µM; for `O=S(=O)(Nc1ccc2c(c1)nc(-c1ccccc1)n2CCCc1ccccc1)c1ccccc1Br` [2-Bromo-N-(2-phenyl-1-(3-phenylpropyl)-1H-benzo[d]imidazol-5-yl)benzenesulfonamide (19)]: 20.8 µM. Regarding `CC(C)(C)c1ccc(S(=O)(=O)Nc2ccc3nc(-c4ccccc4)oc3c2)cc1` [4-(tert-Butyl)-N-(2-phenylbenzo[d]oxazol-6-yl)benzenesulfonamide (9)], inhibition was half-maximal at 36.3 µM (IC50). Consider `O=C(Nc1ccc2c(c1)nc(-c1ccccc1)n2CCCc1ccccc1)c1cccc(Br)c1` [3-Bromo-N-(2-phenyl-1-(3-phenylpropyl)-1H-benzo[d]imidazol-5-yl)benzamide (22)], for which the IC50 worked out at 1.32 µM. The same measure for `CC(C)[C@H](NC(=O)[C@H](CO)NC(=O)[C@H](CO)NC(=O)[C@@H]1CCCN1)C(=O)N[C@@H](Cc1ccc(OP(=O)(O)O)cc1)C(=O)N[C@H](C(=O)N1CCC[C@H]1C(=O)N[C@@H](CC(=O)O)C(=O)N[C@@H](CCC(=O)O)C(=O)N[C@@H](Cc1c[nH]c2ccccc12)C(=O)N[C@@H](CCC(=O)O)C(=O)O)C(C)C` [IR-pep] (H-PSSV[pY]VPDEWE-OH): 26.2 µM; for `CC(C)(C)c1ccc(S(=O)(=O)Nc2ccc3c(c2)nc(-c2ccccc2)n3CCCc2ccccc2)cc1` [4-(tert-Butyl)-N-(2-phenyl-1-(3-phenylpropyl)-1H-benzo[d]imidazol-5-yl)benzenesulfonamide (20)]: 16.3 µM.
